Data taken from article PMC12241370, “Anti-biofilm peptides can rescue fluconazole and amphotericin B efficacies against Candida albicans” (Scientific Reports, 2025).

Key:
[1] = system: C. albicans laboratory strain and clinical isolates; experiment: Resazurin reduction viability assay of planktonic cells; assay type: cell-based, Candida albicans; settings: for strains whose viability could not be reduced to zero: 1x ED: 2 µg/mL amphotericin B, 8 µg/mL fluconazole
Experimental: KG, Nümbrecht, Germany) at 37 °C with shaking at 900 rpm on an Eppendorf shaker. The quantification of viable yeast cells was carried out using a Resazurin-Reduction-Assay[86]. Accordingly, the cells were exposed to 20 µL of a 0.15 mg/mL resazurin solution for 2 h and subsequently the amount of converted resorufin was determined with fluorescence measurements at an excitation wavelength of 535 and an emission of 595 nm with a Tecan infinite F200 microplate reader (Tecan Group Ltd., Männedorf, Switzerland).

[2] = system: C. albicans clinical isolate 23; experiment: Resazurin viability assay of clinical isolate 23; assay type: cell-based, Candida albicans; settings: antifungal alone at 1x ED
Experimental: The viability of C. albicans cells was assessed following the guidelines of the Clinical and Laboratory Standards Institute (M27-A3)[86]. Accordingly, 2.5 × 10^4 yeast cells/mL were cultured in 200 µL of RPMI-1640 medium in the presence of peptide (Pom-1 to Pom-1 F) and amphotericin B or fluconazole in different concentrations (0.1x ED/MBIC and 0.5x ED/MBIC) in flat-bottomed polystyrene microtiter plates with 96 wells (Sarstedt AG and Co. KG, Nümbrecht, Germany) at 37 °C with shaking at 900 rpm on an Eppendorf shaker. The quantification of viable yeast cells was carried out using a Resazurin-Reduction-Assay[86]. Accordingly, the cells were exposed to 20 µL of a 0.15 mg/mL resazurin solution for 2 h and subsequently the amount of converted resorufin was determined with fluorescence measurements at an excitation wavelength of 535 and an emission of 595 nm with a Tecan infinite F200 microplate reader (Tecan Group Ltd., Männedorf, Switzerland).
Figure S4. Inherent resilience to aggregation by isolate 23 and marginal reduction of viability by further raised concentrations of antifungal and peptide combinations. (A) Microscopic analysis using a Leica DMi8 coded (Leica Microsystems CMS GmbH, Wetzlar, Germany) microscope of C. albicans laboratory strain and clinical isolate 23 with and without treatment with Pom-1. The pictures were taken after an incubation time of 2 h. […]

[3] = system: C. albicans laboratory strain and clinical isolates; experiment: Biofilm formation, crystal violet assay; assay type: cell-based, Candida albicans
Experimental: In order to evaluate the antifungal effects of the Pom-1 derivatives combined with amphotericin B or fluconazole on biofilm formation, a crystal violet assay was performed[84],[85]. For this, 2.5 × 10^4 yeast cells/mL were incubated in 200 µL of RPMI-1640 medium supplemented with amphotericin B, fluconazole and Pom-1 to Pom-1 F in flat-bottomed polystyrene microtiter plates with 96 wells for 24 h at 37 °C without agitation. Subsequently, the planktonic phase was removed, the remaining cells attached to the wells were washed twice with 200 µL of demineralized water and exposed to 200 µL of 0.1% (w/v) crystal violet solution for 15 min. Afterwards, the solution was removed and the cells were washed again twice with 200 µL of demineralized water and the plates were left to dry for 24 h at 25 °C. To dissolve the stain, 200 µL of 30% acetic acid was added and transferred to a new plate after 15 min. […] By comparing the resulting data against the untreated controls, the efficacy of the agents could be assessed.

A549 cells = experiment: Resazurin viability assay for cell culture (A549); assay type: cell-based, human; settings: detergent cell lysis control
Experimental: (§1) Adenocarcinomic human alveolar basal epithelial cells (A549) (purchased from the ATCC, Manassas, VA, USA, CRM-CCL-185)[67] and human dermal fibroblasts (HDFs) (purchased from tebu-bio GmbH, Offenbach, Germany) were used[68] for the experiments. Cultivation was conducted in DMEM with FBS (10% (w/v), 15% (w/v)), MEM NEAAs (1% (w/v)), and penicillin–streptomycin (100 U/mL, 1% (w/v)) at 37 °C in an incubator containing 5% CO2. To detect the viability of human cells, a resazurin reduction assay was performed. For this, 2 × 10^4 cells per well of a 96-well plate were incubated in 200 µL DMEM with additives at 37 °C and 5% CO2. After removing the medium, 100 µL of the medium and 100 µL of a peptide/antifungal solution (2.5 µg/mL, 25 µg/mL) were added. After incubation for 24 h at 37 °C and 5% CO2, 20 µL of a resazurin solution (0.15 mg/mL) were added into each well, and the cells were incubated again for 24 h at 37 °C and 5% CO2. Fluorescence measurement (excitation wavelength—535 nm, emission wavelength—595 nm) of the converted resorufin was then performed using a Tecan Infinite F200 microplate reader (Tecan Group Ltd., Männedorf, Switzerland).

[4] = system: human dermal fibroblasts (HDF); experiment: Resazurin viability assay for cell culture (HDF); assay type: cell-based; settings: detergent cell lysis control
Experimental: as §1

[5] = system: C. albicans reference strain; experiment: Permeabilization assay with fluorescent dyes of increasing size; assay type: cell-based, Candida albicans; settings: FITC, propidium iodide, ATTO 488 alkyne, rhodamine phalloidin; Pom-1 or Cm-p5 at 2.5 µg/mL and 10 µg/mL, 2 h, 37 °C; Triton X-100 0.2% (w/v) solution, last 10 min; fluorescence; triplicate
Experimental: For this, 2.5 × 10^4 cells/mL of the C. albicans reference strain were incubated in 200 µL of RPMI-1640 medium supplemented with either Pom-1 or Cm-p5 at final concentrations of 2.5 µg/mL and 10 µg/mL and incubated for 2 h at 37 °C. For the positive control, 100 µL of a 0.2% (w/v) solution of Triton X-100 was added 10 min prior to the end of the 2 h incubation time and for the negative control, no agent was added (untreated). After incubation, the tubes were centrifuged at 11,000 ×g and the supernatant was discarded. Afterwards, the cells were washed with once with PBS and after addition of 5 µL dye and 195 µL PBS (final concentration of dye: 5 µL/mL) the cell suspension was centrifuged at 11,000 ×g for 2 min. […] Subsequently the yeast cells were washed 3x with PBS, resuspended in 200 µL of PBS and pipetted into flat-bottomed polystyrene microtiter plates with 96 wells (Sarstedt AG and Co. KG, Nümbrecht, Germany) and fluorescence measurements were conducted at an excitation wavelength of 498 nm (FITC), 535 nm (propidium iodide), 500 nm (Atto488), and 540 nm (rhodamine phalloidin) and an emission of 517 nm (FITC), 617 nm (propidium iodide), 520 nm (Atto488), 565 nm (rhodamine phalloidin) with a Tecan infinite F200 microplate reader (Tecan Group Ltd., Männedorf, Switzerland). […]

Row | Compound | strains whose viability could not be reduced to zero [1] | strains killed completely ([1]; amphotericin B only, 0.5x ED, planktonic cells, 28 strains) | isolates against which fully active (zero viability) ([1]; amphotericin B only, 1x ED (2 µg/mL), planktonic cells, 28 strains) | isolates against which fully active (death count) ([1]; amphotericin B only, 1x ED (2 µg/mL), planktonic cells, resazurin, triplicate) | effect on isolate 23 [2] | strains with complete biofilm inhibition (death count) ([3]; amphotericin B only, 0.1x ED) | strains with complete biofilm inhibition (death count) ([3]; antifungal only, 0.5x ED) | strains with complete biofilm inhibition ([3]; antifungal only, 0.5x ED, 21 strains) | strains with complete inhibition of biofilms ([3]; antifungal only, 1x ED (2 µg/mL), 21 strains) | strains with complete inhibition of biofilms (death count) ([3]; antifungal only, 1x ED (2 µg/mL), crystal violet, 24 h, 37 °C, triplicate) | isolates with viability reduction (death count) ([1]; fluconazole only, 0.1x ED) | ratio of completely killed C. albicans isolates ([1]; fluconazole only, 1x ED (8 µg/mL), 28 strains) | cell viability of A549 cells (A549 cells) | cell viability of HDF cells [4] | permeabilization of C. albicans cells for fluorescent dyes [5]
1 | C[C@@H]1[C@H](O)[C@@H](C)/C=C/C=C/C=C/C=C/C=C/C=C/C=C/[C@H](O[C@@H]2O[C@H](C)[C@@H](O)[C@H](N)[C@@H]2O)C[C@@H]2O[C@](O)(C[C@@H](O)C[C@@H](O)[C@H](O)CC[C@@H](O)C[C@@H](O)CC(=O)O[C@H]1C)C[C@H](O)[C@H]2C(=O)O [amphotericin B] | 21 of 28 strains | 7% | 25% | 7 of 28 | unaffected | totally failed | 2 of 21 | 9.5% | 52% | 11 of 21 | – | – | – | – | –
2 | OC(Cn1cncn1)(Cn1cncn1)c1ccc(F)cc1F [fluconazole] | 12 of 28 strains | – | – | – | unaffected | – | – | – | – | – | 3 isolates of 28 | 57% | – | – | –
3 | Triton X-100 | – | – | – | – | – | – | – | – | – | – | – | – | zero | zero | permeabilized Candida cells for all dyes
